This note sets out measurements from PMC7177849, “Gut Microbial Catabolites of Tryptophan Are Ligands and Agonists of the Aryl Hydrocarbon Receptor: A Detailed Characterization” (International Journal of Molecular Sciences, 2020).

One data set has as its target T1, murine AhR (Mus musculus, UniProt P30561).
T1 sequence (P30561 10-805): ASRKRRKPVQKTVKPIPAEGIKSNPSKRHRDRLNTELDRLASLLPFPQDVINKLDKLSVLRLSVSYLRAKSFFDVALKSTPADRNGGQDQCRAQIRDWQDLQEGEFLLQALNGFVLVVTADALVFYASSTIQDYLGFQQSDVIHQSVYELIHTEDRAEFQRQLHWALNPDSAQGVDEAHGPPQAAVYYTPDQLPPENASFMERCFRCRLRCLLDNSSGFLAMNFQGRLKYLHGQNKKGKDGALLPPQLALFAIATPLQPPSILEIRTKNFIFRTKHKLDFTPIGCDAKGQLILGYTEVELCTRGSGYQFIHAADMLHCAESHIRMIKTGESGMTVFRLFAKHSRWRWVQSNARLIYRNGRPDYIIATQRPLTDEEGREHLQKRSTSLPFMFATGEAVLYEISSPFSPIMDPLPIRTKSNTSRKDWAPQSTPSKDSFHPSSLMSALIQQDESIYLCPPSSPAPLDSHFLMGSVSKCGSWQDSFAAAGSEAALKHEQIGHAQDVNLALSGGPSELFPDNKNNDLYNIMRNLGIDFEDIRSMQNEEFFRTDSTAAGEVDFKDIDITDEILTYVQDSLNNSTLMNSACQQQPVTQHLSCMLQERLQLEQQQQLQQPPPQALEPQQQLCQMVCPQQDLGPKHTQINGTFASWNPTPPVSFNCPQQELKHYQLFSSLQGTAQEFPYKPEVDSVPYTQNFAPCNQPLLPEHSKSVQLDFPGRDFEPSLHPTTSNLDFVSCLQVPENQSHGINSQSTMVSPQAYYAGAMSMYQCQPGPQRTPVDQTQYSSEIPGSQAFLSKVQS
Put plainly: Competitive radio-ligand ([3H]-TCDD) AhR binding assay, cytosols from Hepa1c1c7 cells. To be noted: Table 1 summary class. The protocol: Figure 2 Competitive radio-ligand binding assay. Cytosols from Hepa1c1c7 cells were incubated with vehicle (negative control; 0.1% V/V), FICZ (positive control; 0.01 nM – 10 nM), TCDF (non-specific binding; 200 nM) and increasing doses of MICT in the presence of 2 nM [^3H]-TCDD. The specific binding of [^3H]-TCDD was determined as a difference between total and non-specific (200 nM; TCDF) reactions (value for vehicle DMSO; 0.1% V/V = corresponds to specific binding of [^3H]-TCDD = 100%). At least two independent experiments were performed and the incubations were done in triplicates in each experiment (technical replicates).
Ligand binding assay was performed using cytosolic protein extracts from murine Hepa1c1c7 cells as described. Briefly, aliquots of protein (2 mg/mL) were incubated at the room temperature for two (2) h with 2 nM [^3H]-TCDD in the presence of DMSO (vehicle control), FICZ (positive control), 200 nM TCDF (non-specific binding) or increasing concentration of MICT. After the incubation, the hydroxyapatite slurry was added to the samples and the suspension was incubated on ice and washed three times with HEGT buffer. The hydroxyapatite pellet was re-suspended in scintillation cocktail, and radioactivity was determined in a liquid scintillation counter. The specific binding of [^3H]-TCDD was determined by subtracting the radioactivity of non-specific reaction (TCDF) from total radioactivity. The values of IC50 were calculated where appropriate.

Another data set deals with CYP1A1 mRNA. Briefly: CYP1A1 mRNA (qRT-PCR) in primary human hepatocytes. The format is cell-based. To be noted: three donors, 24 h. As for the experimental part:
Figure 4 Effects of MICT on the induction of CYP1A1 mRNA in human hepatic and intestinal cells. Cultured cells were incubated for 24 h with the vehicle (DMSO; 0.1% v/v) and tested MICT in the presence or absence of TCDD (10 nM). RT-PCR determined the level of CYP1A1 mRNA, and the data were normalized per GAPDH mRNA level. […] (A,B) Experiments in three consecutive passages of human colon adenocarcinoma cell line LS180 in the absence (A) and the presence (B) of 10 nM TCDD. The bar graphs show the percentage of maximal induction attained by TCDD and are expressed as the mean ± SD. (C) Experiments in three consecutive passages of wild-type (AhR^+/^+) and AhR-knockout (AhR^−/^−) HT-29 cells. […] (D) Primary human hepatocytes from three different donors (LH79, Hep2201020, and Hep2201021).
Primary human hepatocyte cultures were from two sources: (i) long-term human hepatocytes in monolayer batch Hep2201020 (person) and Hep2201021 (person) were purchased from Biopredic International (Rennes, France); (ii) primary human hepatocytes from multiorgan donor LH79 were prepared at Palacky University Olomouc. Liver tissue was obtained from Faculty Hospital Olomouc, and the tissue acquisition protocol followed the requirements issued by the “Ethical Committee of the Faculty Hospital Olomouc, Czech Republic” and Transplantation law #285/2002 Coll.
Total RNA was isolated using TRI Reagent® (Sigma Aldrich, Prague, Czech Republic). cDNA was synthesized using M-MuLV reverse transcriptase (New England Biolabs, Ipswich, MA, USA). The reverse transcription was performed at 42 °C for 60 min using Random Primers 6 (New England Biolabs, Ipswich, MA, USA) and diluted in a 1:4 ratio by PCR-grade water. The quantitative reverse transcriptase-polymerase chain reaction (qRT-PCR) was performed on the Lightcycler 480 II using the LightCycler ® 480 Probes Master (Roche Diagnostic Corporation, Prague, Czech Republic). The levels of CYP1A1 and GAPDH mRNAs were determined using the Universal Probe Library probes (UPL; Roche Diagnostic Corporation, Prague, Czech Republic) in combination with specific primers, using a protocol described elsewhere. All measurements were performed in triplicates, and the gene expression was normalized to glyceraldehyde-3-phosphate dehydrogenase (GAPDH) as a house-keeping gene. The data were processed using the delta-delta Ct method and expressed as a fold induction over the negative control (DMSO) or as a percentage of the positive control (maximal induction by TCDD).
In general terms: Real-time PCR tracks product formation cycle by cycle.

The target of another data set is T2, AhR-ARNT heterodimer (Homo sapiens, UniProt P35869).
T2 construct: 0.1% V/V) for 90 min at 37 °C; host or cells: LS180 cells
Put plainly: Protein co-immunoprecipitation, formation of AhR-ARNT heterodimer in LS180 cells. The format is cell-based. To be noted: 90 min. As for the experimental part:
Figure 6 MICTs induce a formation of the AhR-ARNT heterodimer. Intestinal LS180 cells were incubated with TCDD, tested MICT, and vehicle (DMSO; 0.1% V/V) for 90 min. Protein co-immunoprecipitation of ARNT was carried out, as described in the Methods section. The representative immunoblots of immuno-precipitated protein eluates and total cell lysates are shown. The experiments were performed in two consecutive cell passages.
Intestinal LS180 cells were incubated with TCDD, tested MICT, and vehicle (DMSO; 0.1% V/V) for 90 min at 37 °C. The Pierce™ Co-Immunoprecipitation Kit (Thermo Fisher Scientific) with covalently coupled AhR antibody (mouse monoclonal, sc-133088, A-3, Santa Cruz Biotechnology) was used. Eluted protein complexes and total parental lysates were resolved on SDS-PAGE gels followed by Western Blot analysis and immuno-detection with ARNT-1 antibody (mouse monoclonal, sc-17812, G-3, Santa Cruz Biotechnology). Chemiluminescent detection was performed using horseradish peroxidase-conjugated anti-mouse secondary antibody (7076S, Cell Signaling Technology) and WesternSure® PREMIUM Chemiluminescent Substrate (LI-COR Biotechnology) by C-DiGit® Blot Scanner (LI-COR Biotechnology).

Molecules are shown by their SMILES.

T2 sequence (P35869 11-848): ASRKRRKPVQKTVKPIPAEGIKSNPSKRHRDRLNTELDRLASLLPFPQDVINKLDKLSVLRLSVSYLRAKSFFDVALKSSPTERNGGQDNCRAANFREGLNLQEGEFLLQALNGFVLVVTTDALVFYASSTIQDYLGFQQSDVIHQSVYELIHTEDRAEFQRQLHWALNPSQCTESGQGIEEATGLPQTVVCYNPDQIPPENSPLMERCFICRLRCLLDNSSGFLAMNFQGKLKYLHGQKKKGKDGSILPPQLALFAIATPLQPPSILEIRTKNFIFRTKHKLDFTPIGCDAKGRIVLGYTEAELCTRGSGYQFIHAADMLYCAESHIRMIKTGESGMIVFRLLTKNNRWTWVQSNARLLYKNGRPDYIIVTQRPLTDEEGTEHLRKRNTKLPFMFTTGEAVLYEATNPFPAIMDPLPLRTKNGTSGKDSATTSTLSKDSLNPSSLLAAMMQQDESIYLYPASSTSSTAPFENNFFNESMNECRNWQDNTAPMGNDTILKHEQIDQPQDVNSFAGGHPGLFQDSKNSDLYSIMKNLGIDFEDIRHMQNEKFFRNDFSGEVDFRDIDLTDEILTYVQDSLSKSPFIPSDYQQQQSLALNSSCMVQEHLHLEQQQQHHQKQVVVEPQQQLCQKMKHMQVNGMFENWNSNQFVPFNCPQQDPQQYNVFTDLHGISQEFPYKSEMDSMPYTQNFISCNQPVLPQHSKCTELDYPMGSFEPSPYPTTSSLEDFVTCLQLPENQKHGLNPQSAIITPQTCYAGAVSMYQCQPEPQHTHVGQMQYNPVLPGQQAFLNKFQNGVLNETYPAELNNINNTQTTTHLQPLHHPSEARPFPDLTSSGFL
T2 sequence (P27540 whole entry partner): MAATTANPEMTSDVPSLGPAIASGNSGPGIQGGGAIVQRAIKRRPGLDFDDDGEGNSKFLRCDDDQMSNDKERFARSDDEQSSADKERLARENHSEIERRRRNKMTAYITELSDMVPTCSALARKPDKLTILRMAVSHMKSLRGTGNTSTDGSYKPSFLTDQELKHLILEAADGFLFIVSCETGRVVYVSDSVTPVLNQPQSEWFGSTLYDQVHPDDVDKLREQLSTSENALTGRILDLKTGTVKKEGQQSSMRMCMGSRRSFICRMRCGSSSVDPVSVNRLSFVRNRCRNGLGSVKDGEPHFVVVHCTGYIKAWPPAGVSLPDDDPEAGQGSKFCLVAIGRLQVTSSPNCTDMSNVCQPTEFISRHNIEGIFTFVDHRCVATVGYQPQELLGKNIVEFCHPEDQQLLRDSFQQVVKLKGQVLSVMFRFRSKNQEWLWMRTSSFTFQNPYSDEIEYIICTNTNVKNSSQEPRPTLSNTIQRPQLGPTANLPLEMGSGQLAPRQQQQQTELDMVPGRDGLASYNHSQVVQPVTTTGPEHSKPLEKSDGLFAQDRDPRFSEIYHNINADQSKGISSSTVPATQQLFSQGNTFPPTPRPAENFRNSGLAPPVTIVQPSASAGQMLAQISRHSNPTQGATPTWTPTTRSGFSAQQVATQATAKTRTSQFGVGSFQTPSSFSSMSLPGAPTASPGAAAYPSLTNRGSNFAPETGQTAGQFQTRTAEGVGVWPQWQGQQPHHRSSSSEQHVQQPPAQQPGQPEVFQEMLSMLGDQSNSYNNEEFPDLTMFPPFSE

Take `Cc1c[nH]c2ccccc12` [3MI, skatole]: at murine AhR, the “Affinity (IC50)” value is “low”. In the data set on CYP1A1 mRNA, the “induction of CYP1A1 mRNA” value was “induced”. The “formation of AhR-ARNT heterodimer” value on AhR-ARNT heterodimer is reported as “induce a formation of AhR-ARNT heterodimer”.

Take `O=Cc1c[nH]c2ccccc12` [IA, indole-3-aldehyde]: the “Affinity (IC50)” value on murine AhR was “no”.

In the case of `O=C(O)/C=C/c1c[nH]c2ccccc12` [IAC, indole-3-acrylate], the “Affinity (IC50)” value at murine AhR is “very low”. Further, in the data set with CYP1A1 mRNA, the “induction of CYP1A1 mRNA” value is listed as “induced”. Further, the “formation of AhR-ARNT heterodimer” value on AhR-ARNT heterodimer is “induce a formation of AhR-ARNT heterodimer”.

Consider `NC(=O)Cc1c[nH]c2ccccc12` [IAD, indole-3-acetamide], for which the “Affinity (IC50)” value on murine AhR is listed as “low”. In the data set with CYP1A1 mRNA, the “induction of CYP1A1 mRNA” value is given as “induced”. In addition, at AhR-ARNT heterodimer, the “formation of AhR-ARNT heterodimer” value is recorded as “induce a formation of AhR-ARNT heterodimer”.

As for `OCCc1c[nH]c2ccccc12` [IET, indole-3-ethanol], at murine AhR, the “Affinity (IC50)” value is “very low”.

Regarding `O=C(O)C(O)Cc1c[nH]c2ccccc12` (stereo not drawn) [ILA, indole-3-lactate], the “Affinity (IC50)” value on murine AhR is reported as “no”.

Consider `c1ccc2[nH]ccc2c1` [IND, indole], for which the “Affinity (IC50)” value at murine AhR is given as “very low”. The “induction of CYP1A1 mRNA” value in the data set on CYP1A1 mRNA is given as “induced”. At AhR-ARNT heterodimer, the “formation of AhR-ARNT heterodimer” value is recorded as “induce a formation of AhR-ARNT heterodimer”.

In the case of `O=C(O)C(=O)Cc1c[nH]c2ccccc12` [IPY, indole-3-pyruvate], the “Affinity (IC50)” value at murine AhR is “low”. In addition, the “induction of CYP1A1 mRNA” value in the data set with CYP1A1 mRNA is reported as “induced”. Also, the “formation of AhR-ARNT heterodimer” value on AhR-ARNT heterodimer is “induce a formation of AhR-ARNT heterodimer”.

For the molecule `NCCc1c[nH]c2ccccc12` [TA, tryptamine], the “Affinity (IC50)” value at murine AhR is listed as “no”. In addition, in the data set with CYP1A1 mRNA, the “induction of CYP1A1 mRNA” value is given as “lack of induction”. Besides, the “formation of AhR-ARNT heterodimer” value at AhR-ARNT heterodimer is reported as “induce a formation of AhR-ARNT heterodimer”.
